# From patent US20220054494A1, “METHODS FOR TREATING BLADDER AND URETHRA DYSFUNCTION AND DISEASE” (University of Pittsburgh - Of the Commonwealth System of …, priority 2019, published 2022)
# Entries after “also recorded” stand apart in the source; their conditions may differ.
# Assays:
# [1] = biological target: PNPase (Homo sapiens, UniProt P00491); details: Jackson et al., J Am Heart Assoc 2018; cited from earlier work
# [2] = tested on: cleaved PARP; assay: Western immunoblotting, cleaved PARP; assay type: in vivo, rat; details: aged rats; oral 8-AG 5 mg/kg/day, 6 weeks
# Procedure: Western immunoblotting: One half of each bladder preparation was homogenized using Lysing Matrix D in a FastPrep 24 instrument (MP Biomedicals, Solon, Ohio) in HBSS (5 mM KCl, 0.3 mM KH2PO4, 138 mM NaCl, 4 mM NaHO3, 0.3 mM Na2HCO3, 0.3 mM Na2HPO4, 5.6 mM glucose and 10 mM Hepes, pH 7.4) containing complete protease inhibitor cocktail (1 tablet/10 ml, ROCHE®, Indianapolis, Ind.)) and phosphatase inhibitor cocktail (SIGMA®, 1:100). After centrifugation (13000 rpm; 15 min at 4° C.), the membrane protein fraction was prepared by suspending the membrane pellets in lysis buffer containing 0.3 M NaCl, 50 mM Tris-HCl (pH 7.6) and 0.5% Triton X-100 and the same concentration of protease inhibitors as above. The suspensions were incubated on ice and centrifuged (13000 rpm; 15 min at 4° C.). The protein concentrations of the combined supernatants were determined using the PIERCE® BCA protein assay (THERMO SCIENTIFIC®, Rockford, Ill.). After denaturation (100° C. for 5 min) in the presence of Laemmli sample buffer, lysate from each sample was separated on a 4-15% TGX Stain-Free SDS-PAGE gel (BIO-RAD® Laboratories, Hercules, Calif.). As a loading control, total protein per sample was determined using Bio-Rad® Stain Free SDS-PAGE gel technology. UV-activated protein fluorescence was imaged on a CHEMIDOC® MP (BIO-RAD®). […] The volume (intensity) of each protein species was determined and normalized to total protein using Image Lab software (BIO-RAD®).
# [3] = tested on: CYP-treated rats; assay: Voiding analysis in cyclophosphamide (CYP) cystitis model; assay type: in vivo, rat; details: CYP (75 mg/kg i.p.) female Sprague Dawley rats; oral 8-AG 5 mg/kg/day starting one week prior to CYP
# Procedure: Animals: Female Sprague Dawley rats were employed in this example (Charles River; Wilmington, Mass.). Three groups of animals were included. Group 1 received an i.p. injection of saline and was used as a control; groups 2 and 3 received an i.p. injection of cyclophosphamide (CYP, SIGMA-ALDRICH®, St Louis, Mo., day 0, 3, 6, sacrifice day 8, 75 mg/kg, i.p.) with group 3 treated with oral 8-AG (5 mg/kg/day; starting one week prior to CYP). CYP induced bladder inflammation and is a well-established pre-clinical model for BPS/IC.
# Voiding Analysis: Untreated, CYP-treated, and 8-AG-treated CYP rats were placed in metabolic cages (24 hr; once per week) for the duration of the study. The light cycle was from 7:00 AM to 7:00 PM, and food and water were provided ad libitum. […] Data were averaged for 24 h and analyzed for 12-h periods during the day (7:00 AM-7:00 PM) and night (7:00 PM-7:00 AM). Voiding frequency, total voided volume, and volume per void were analyzed. Voiding frequency was calculated as the number of voiding events per hour during 24 hr and during the 12-hr day and 12-hr night periods. Volume per void, which defines bladder capacity, was calculated as an average of the voids occurring during these periods.
# PNPase, sequence (P00491 whole entry): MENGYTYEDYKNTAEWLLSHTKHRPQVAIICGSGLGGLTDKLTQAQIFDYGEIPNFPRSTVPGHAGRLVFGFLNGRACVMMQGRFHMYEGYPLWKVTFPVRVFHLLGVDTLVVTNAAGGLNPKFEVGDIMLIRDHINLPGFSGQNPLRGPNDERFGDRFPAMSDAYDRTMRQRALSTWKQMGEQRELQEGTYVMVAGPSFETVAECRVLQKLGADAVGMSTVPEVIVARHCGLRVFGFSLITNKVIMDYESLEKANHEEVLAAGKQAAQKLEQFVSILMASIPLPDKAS
smiles,measurement,setting,value
"Nc1nc2[nH]c(N)nc2c(=O)[nH]1 [8-AG, 8-Aminoguanine]","PNPase inhibition (mechanism of diuresis, natriuresis, glucosuria)",[1],inhibiting
same,EUS cleaved PARP,[2],restored to a younger state
same,cleaved PARP in detrusor smooth muscle,[2],levels similar to the younger state; also recorded: restored these biomarkers to that of a younger state
same,urethral cleaved PARP,[2],normalized to a younger state
same,intercontraction interval,[3],attenuates
same,voiding frequency,[3],attenuates
